Source: publication PMC10575874, “Structural insights into the allosteric inhibition of P2X4 receptors” (Nature Communications, 2023)

T1: human P2X3 receptor, P2X4-like gain-of-function mutant (Homo sapiens, UniProt P56373, M75W/T82I/V98I)
T1 construct: gene P2RX3
T1 sequence (P56373 1-397 M75W/T82I/V98I): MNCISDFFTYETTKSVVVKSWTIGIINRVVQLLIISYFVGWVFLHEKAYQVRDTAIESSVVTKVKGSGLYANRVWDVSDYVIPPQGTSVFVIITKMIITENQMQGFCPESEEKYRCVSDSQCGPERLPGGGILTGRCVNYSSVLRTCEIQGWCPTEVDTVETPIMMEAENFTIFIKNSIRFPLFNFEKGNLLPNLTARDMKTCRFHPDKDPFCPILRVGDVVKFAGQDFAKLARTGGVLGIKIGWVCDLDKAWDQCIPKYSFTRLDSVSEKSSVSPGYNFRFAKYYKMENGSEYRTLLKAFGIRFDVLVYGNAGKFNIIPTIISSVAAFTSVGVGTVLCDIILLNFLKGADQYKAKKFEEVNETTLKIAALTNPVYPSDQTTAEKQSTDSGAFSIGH

T2: zebrafish P2X4 receptor (zfP2X4) (Danio rerio, UniProt F8W463)
T2 construct: gene p2rx4a; residues 9-382 (GenBank AAH66495.1), trimer in PMAL-C8 amphipol
T2 sequence (F8W463 9-382): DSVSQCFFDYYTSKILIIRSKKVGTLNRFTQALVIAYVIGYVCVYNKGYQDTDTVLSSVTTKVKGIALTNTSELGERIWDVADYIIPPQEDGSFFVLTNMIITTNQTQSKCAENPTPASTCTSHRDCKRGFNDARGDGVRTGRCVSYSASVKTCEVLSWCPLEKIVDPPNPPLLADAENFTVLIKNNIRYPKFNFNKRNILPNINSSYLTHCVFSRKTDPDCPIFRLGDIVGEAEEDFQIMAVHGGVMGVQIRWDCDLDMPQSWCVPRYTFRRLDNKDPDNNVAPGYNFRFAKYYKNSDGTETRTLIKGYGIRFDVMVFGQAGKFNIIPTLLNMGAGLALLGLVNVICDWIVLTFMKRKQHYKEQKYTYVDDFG


Experiments:
[1] = target: T1, human P2X3 receptor, P2X4-like gain-of-function mutant; experiment: patch clamp of ATP-evoked currents in HEK293 cells at […] BX430; format: cell-based
[2] = target: T2, zebrafish P2X4 receptor (zfP2X4); experiment: cryo-EM structure ([…] Å); whole-cell patch clamp in HEK293 cells
[3] = target: the molecule itself; experiment: cryo-EM structure; purified zfP2X4 in PMAL-C8 amphipol, incubated with 50 uM BX430 or 125 uM BAY-1797 for 1 h; C3 symmetry imposed, also processed with C1 symmetry

Molecule	patch clamp of ATP-evoked currents in HEK293 cells at 30 and 100 μM BX430 [1]	IC50 [2]	stoichiometry N [3]
CC(C)c1cc(Br)c(NC(=O)Nc2cccnc2)c(Br)c1 [BX430, 1-(2,6-dibromo-4-isopropylphenyl)-3-(3-pyridyl)urea]	the P2X4-like mutant of human P2X3 (M75W/T82I/V98I) conferred sensitivity to BX430	BX430-bound zfP2X4 (EMD-36668) (PDB 8JV5)	
zebrafish P2X4 receptor (residues 9-382) (receptor, UniProt F8W463 9-382, looked up, P2X4 receptor, zebrafish (Danio rerio), GenBank AAH66495.1, residues 9-382 (truncation of the N-terminal 8 and the C-terminal 7 residues); Homotrimer; A C-terminal HRV 3C site stood before TGP and the Twin-Strep-tag; residues of the site may remain after cleavage; also called zfP2X4; source: Sf9 (baculovirus), purified (Strep-Tactin, HRV 3C cleavage, SEC), reconstituted into PMAL-C8 amphipol; not …) DSVSQCFFDYYTSKILIIRSKKVGTLNRFTQALVIAYVIGYVCVYNKGYQDTDTVLSSVTTKVKGIALTNTSELGERIWDVADYIIPPQEDGSFFVLTNMIITTNQTQSKCAENPTPASTCTSHRDCKRGFNDARGDGVRTGRCVSYSASVKTCEVLSWCPLEKIVDPPNPPLLADAENFTVLIKNNIRYPKFNFNKRNILPNINSSYLTHCVFSRKTDPDCPIFRLGDIVGEAEEDFQIMAVHGGVMGVQIRWDCDLDMPQSWCVPRYTFRRLDNKDPDNNVAPGYNFRFAKYYKNSDGTETRTLIKGYGIRFDVMVFGQAGKFNIIPTLLNMGAGLALLGLVNVICDWIVLTFMKRKQHYKEQKYTYVDDFG			3
